Experimental data from PubChem BioAssay AID1919001 (Molecular Pharmacology Branch, DTP, NCI, 2023).
Values belong to the compound of their own block, whether it stands above or below them.

Tested on: 699152-130-R-J1-PDC complex spheroid growth
Experiment: Anticancer human tumor 699152-130-R-J1-PDC patient-derived pancreatic carcinoma cell line growth inhibition [AhR]
Conditions: for IC50: curve of first compound; for viability, T/C: stronger effect = lower value
Procedure, shortened: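 Agents were dosed in half-log steps down from roughly clinical Cmax, or from 10 microM where Cmax was unknown, alone and with AhR antagonists. Read-out: percent test/control growth of tumor spheroids containing HUVEC and MSC stromal cells.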

[1] = second compound 0.1 µM, first compound 0.0316 µM
[2] = second compound 0.1 µM, first compound 0.1 µM
[3] = second compound 0.1 µM, first compound 0.316 µM
[4] = second compound 0.1 µM, first compound 1 µM
[5] = second compound 0.1 µM, first compound 3.16 µM
[6] = second compound 0.1 µM, first compound 10 µM
[7] = second compound 0.316 µM, first compound 0.0316 µM
[8] = second compound 0.316 µM, first compound 0.1 µM
[9] = second compound 0.316 µM, first compound 0.316 µM
[10] = second compound 0.316 µM, first compound 1 µM
[11] = second compound 0.316 µM, first compound 3.16 µM
[12] = second compound 0.316 µM, first compound 10 µM
[13] = second compound 1 µM, first compound 0.0316 µM
[14] = second compound 1 µM, first compound 0.1 µM
[15] = second compound 1 µM, first compound 0.316 µM
[16] = second compound 1 µM, first compound 1 µM
[17] = second compound 1 µM, first compound 3.16 µM
[18] = second compound 1 µM, first compound 10 µM
[19] = second compound 3.16 µM, first compound 0.0316 µM
[20] = second compound 3.16 µM, first compound 0.1 µM
[21] = second compound 3.16 µM, first compound 0.316 µM
[22] = second compound 3.16 µM, first compound 1 µM
[23] = second compound 3.16 µM, first compound 3.16 µM
[24] = second compound 3.16 µM, first compound 10 µM
[25] = second compound 10 µM, first compound 0.0316 µM
[26] = second compound 10 µM, first compound 0.1 µM
[27] = second compound 10 µM, first compound 0.316 µM
[28] = second compound 10 µM, first compound 1 µM
[29] = second compound 10 µM, first compound 3.16 µM
[30] = second compound 10 µM, first compound 10 µM
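Further: compound exposure lasted 7 days after spheroids had grown for 3 days.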

IC50 (second compound 0.1 µM): 5750 nM
IC50 (second compound 0.316 µM): 10000 nM
IC50 (second compound 1 µM): 7010 nM
IC50 (second compound 3.16 µM): 2910 nM
IC50 (second compound 10 µM): 9150 nM
SMILES: Nc1ccn(C2OC(CO)C(O)C2(F)F)c(=O)n1 (stereo not given) + CC(CO)NC(=O)c1cc(-c2ccc(Cl)cc2)nn(-c2cnn(C)c2)c1=O
viability, T/C [1]: 67.1%
viability, T/C [2]: 73.4%
viability, T/C [3]: 62%
viability, T/C [4]: 56.4%
viability, T/C [5]: 52.6%
viability, T/C [6]: 48.1%
viability, T/C [7]: 67%
viability, T/C [8]: 73.1%
viability, T/C [9]: 50.8%
viability, T/C [10]: 53.6%
viability, T/C [11]: 50.6%
viability, T/C [12]: 47%
viability, T/C [13]: 68.8%
viability, T/C [14]: 69.5%
viability, T/C [15]: 63.5%
viability, T/C [16]: 61.5%
viability, T/C [17]: 56.7%
viability, T/C [18]: 47.1%
viability, T/C [19]: 66.1%
viability, T/C [20]: 67.4%
viability, T/C [21]: 55.8%
viability, T/C [22]: 54.3%
viability, T/C [23]: 49.2%
viability, T/C [24]: 46.3%
viability, T/C [25]: 68.9%
viability, T/C [26]: 70.7%
viability, T/C [27]: 62%
viability, T/C [28]: 60.9%
viability, T/C [29]: 53.9%
viability, T/C [30]: 50%

IC50 (second compound 0.1 µM): > 10000 nM
IC50 (second compound 0.316 µM): 7660 nM
IC50 (second compound 1 µM): 9210 nM
IC50 (second compound 3.16 µM): 2700 nM
IC50 (second compound 10 µM): < 31.6 nM
SMILES: COc1cc(C2c3cc4c(cc3C(OC3OC5COC(C)OC5C(O)C3O)C3COC(=O)C23)OCO4)cc(OC)c1O (stereo not given) + Cc1cncc(-c2nc(NCCc3c[nH]c4ccccc34)c3ncn(C(C)C)c3n2)c1
viability, T/C [1]: 106%
viability, T/C [2]: 98%
viability, T/C [3]: 70.1%
viability, T/C [4]: 70.3%
viability, T/C [5]: 58%
viability, T/C [6]: 52.6%
viability, T/C [7]: 104%
viability, T/C [8]: 89.5%
viability, T/C [9]: 80.2%
viability, T/C [10]: 67.4%
viability, T/C [11]: 58.9%
viability, T/C [12]: 46.8%
viability, T/C [13]: 99.6%
viability, T/C [14]: 97.2%
viability, T/C [15]: 74.9%
viability, T/C [16]: 77.5%
viability, T/C [17]: 63.6%
viability, T/C [18]: 47.4%
viability, T/C [19]: 106%
viability, T/C [20]: 91.3%
viability, T/C [21]: 70.1%
viability, T/C [22]: 60.6%
viability, T/C [23]: 48.5%
viability, T/C [24]: 41.7%
viability, T/C [25]: 0.93%
viability, T/C [26]: 1.13%
viability, T/C [27]: 1.96%
viability, T/C [28]: 1.2%
viability, T/C [29]: 1.07%
viability, T/C [30]: 4.92%

IC50 (second compound 0.1 µM): 12.8 nM
IC50 (second compound 0.316 µM): 15 nM
IC50 (second compound 1 µM): 12.3 nM
IC50 (second compound 3.16 µM): 22.3 nM
IC50 (second compound 10 µM): 44.4 nM
SMILES: CCc1c2c(nc3ccc(O)cc13)-c1cc3c(c(=O)n1C2)COC(=O)[C@]3(O)CC + Cc1ccccc1N=Nc1ccc(NC(=O)c2ccnn2C)c(C)c1
viability, T/C (second compound 0.1 µM, first compound 0.000949 µM): 87.4%
viability, T/C (second compound 0.1 µM, first compound 0.003 µM): 86.4%
viability, T/C (second compound 0.1 µM, first compound 0.00949 µM): 52.5%
viability, T/C (second compound 0.1 µM, first compound 0.03 µM): 46.3%
viability, T/C (second compound 0.1 µM, first compound 0.0949 µM): 46.9%
viability, T/C (second compound 0.1 µM, first compound 0.3 µM): 34.1%
viability, T/C (second compound 0.316 µM, first compound 0.000949 µM): 103%
viability, T/C (second compound 0.316 µM, first compound 0.003 µM): 80%
viability, T/C (second compound 0.316 µM, first compound 0.00949 µM): 52.2%
viability, T/C (second compound 0.316 µM, first compound 0.03 µM): 47.1%
viability, T/C (second compound 0.316 µM, first compound 0.0949 µM): 41.8%
viability, T/C (second compound 0.316 µM, first compound 0.3 µM): 38.9%
viability, T/C (second compound 1 µM, first compound 0.000949 µM): 85%
viability, T/C (second compound 1 µM, first compound 0.003 µM): 78.2%
viability, T/C (second compound 1 µM, first compound 0.00949 µM): 50.8%
viability, T/C (second compound 1 µM, first compound 0.03 µM): 45%
viability, T/C (second compound 1 µM, first compound 0.0949 µM): 39.6%
viability, T/C (second compound 1 µM, first compound 0.3 µM): 34.2%
viability, T/C (second compound 3.16 µM, first compound 0.000949 µM): 95.7%
viability, T/C (second compound 3.16 µM, first compound 0.003 µM): 82%
viability, T/C (second compound 3.16 µM, first compound 0.00949 µM): 57.2%
viability, T/C (second compound 3.16 µM, first compound 0.03 µM): 45.6%
viability, T/C (second compound 3.16 µM, first compound 0.0949 µM): 42.8%
viability, T/C (second compound 3.16 µM, first compound 0.3 µM): 29.7%
viability, T/C (second compound 10 µM, first compound 0.000949 µM): 115%
viability, T/C (second compound 10 µM, first compound 0.003 µM): 87.5%
viability, T/C (second compound 10 µM, first compound 0.00949 µM): 60.5%
viability, T/C (second compound 10 µM, first compound 0.03 µM): 51.2%
viability, T/C (second compound 10 µM, first compound 0.0949 µM): 49.9%
viability, T/C (second compound 10 µM, first compound 0.3 µM): 39.4%
